Article PMC9370150, “UHPLC Enantiomer Resolution for the ɑ/β-Adrenoceptor Antagonist R/S-Carvedilol and Its Major Active Metabolites on Chiralpak IB N-5” (Molecules, 2022)
Where two headings read alike, the source gives them in different places.

Tests used:
α1-adrenoreceptor = conditions: cited from earlier work
β-adrenoreceptor = conditions: cited from earlier work
[1] = Enantiomer plasma concentrations in cardiovascular patients after oral 25 mg rac-CAR (UHPLC-UV on Chiralpak IB N-5); conditions: for concentration at 0.5 h / concentration at 1 h / concentration at 2 h / concentration at 4 h / concentration at 9 h / concentration at 12 h: human, plasma, po, 25 mg
Procedure: The developed method was applied to single plasma samples obtained from different patients after an oral dose administration of 25 mg rac-CAR under non-standardized conditions. Patients’ plasma was collected at different time intervals after drug administration and CAR and its metabolites were extracted according to the method in Section 4.7 after spiking with IS.
Blood samples obtained from patients were also collected in EDTA-containing tubes. Blood was kept cool and then centrifuged at 2000 g for 15 min. Following plasma separation, it was immediately transferred into clean polypropylene tubes. The samples were always kept at 2–8 °C while handling.
After collection, plasma was obtained and the samples stored frozen until analysis.

[2] = design: method as in PMID 1980583; conditions: therapeutic dose; cited from earlier work
[3] = patient 3, sampling time 2.0 hr, oral 25 mg racemic CAR
[4] = patient 4, sampling time 4.0 hr, oral 25 mg racemic CAR
[5] = patient 5, sampling time 9.0 hr, oral 25 mg racemic CAR
[6] = patient 6, sampling time 12.0 hr, oral 25 mg racemic CAR
[7] = single enantiomers, read-out: Kd, α1-antagonistic activity
[8] = single enantiomers, read-out: Kd, β-adrenoreceptor antagonistic property

Compound	concentration at 0.5 h [1] [ng/mL]	concentration at 1 h [1] [ng/mL]	Plasma Concentration [1, 3] [ng/mL]	Plasma Concentration [1, 4] [ng/mL]	Plasma Concentration [1, 5] [ng/mL]	Plasma Concentration [1, 6] [ng/mL]	concentration at 2 h [1] [ng/mL]	concentration at 4 h [1] [ng/mL]	concentration at 9 h [1] [ng/mL]	concentration at 12 h [1] [ng/mL]	also measured
COc1ccccc1OCCNCC(O)COc1cccc2[nH]c3ccccc3c12 (centres unmarked) [CAR, Carvedilol]	41	98.4	–	–	–	–	–	–	–	–	α1-adrenoceptor-antagonism eudismic ratio (α1-adrenoreceptor; parent CAR): approximately 1; Kd (α1-adrenoreceptor; racemate, read-out: apparent dissociation constant (Kd), α1-adrenoreceptor antagonist): 0.9 nM; β-adrenoceptor-antagonism eudismic ratio (β-adrenoreceptor; parent CAR): approximately 100; Kd (β-adrenoreceptor; racemate, read-out: Kd, nonselective β-adrenoreceptor antagonist): 11 nM; plasma S/R ratios of CAR enantiomers ([1]; analyzed patient samples after 25 mg CAR racemate): ~1; Plasma concentration S/R ([1]; patient 1, sampling time 0.5 hr, oral 25 mg racemic CAR): 0.98; sum of the two enantiomers in plasma ([1]; patients investigated, 25 mg CAR racemate): ≤ 100 ng/mL; excreted unchanged into urine [2]: 2%; fraction of dose metabolized [2]: ~98%
COc1cc(O)ccc1OCCNC[C@@H](O)COc1cccc2[nH]c3ccccc3c12 [R-4′OHC]	–	–	4.51	4.98	3.54	1.96	–	–	–	–	–
COc1ccc(O)cc1OCCNC[C@@H](O)COc1cccc2[nH]c3ccccc3c12 [R-5′OHC]	–	–	8.20	9.47	6.09	3.78	–	–	–	–	–
COc1ccccc1OCCNC[C@@H](O)COc1cccc2[nH]c3ccccc3c12 [R-CAR]	20.7	48.4	–	–	–	–	–	–	–	–	Kd (α1-adrenoreceptor; [7]): 16 nM; β-blocking activity relative to the racemate (β-adrenoreceptor; share of the racemate's activity): approximately 1%; Kd (β-adrenoreceptor; [8]): ~45 nM
Oc1ccccc1OCCNC[C@@H](O)COc1cccc2[nH]c3ccccc3c12 [R-DMC]	–	–	6.06	4.93	2.82	1.52	–	–	–	–	Plasma Concentration ([1]; patient 2, sampling time 1.0 hr, oral 25 mg racemic CAR): 2.40 ng/mL
COc1cc(O)ccc1OCCNC[C@H](O)COc1cccc2[nH]c3ccccc3c12 [S-4′OHC]	–	–	–	–	–	–	13.7	16.1	8.18	5.29	–
COc1ccc(O)cc1OCCNC[C@H](O)COc1cccc2[nH]c3ccccc3c12 [S-5′OHC]	–	–	–	–	–	–	11.5	14.1	8.09	5.28	–
COc1ccccc1OCCNC[C@H](O)COc1cccc2[nH]c3ccccc3c12 [S-CAR, (-)-1-(9H-carbazol-4-yloxy)-3-[2-(2-methoxyphenoxy)ethylamino] propan-2-ol]	20.3	50	–	–	–	–	–	–	–	–	Kd (α1-adrenoreceptor; [7]): 14 nM; β-adrenoreceptor potency relative to the racemic mixture (β-adrenoreceptor; fold more potent than racemate): approximately two-fold; Kd (β-adrenoreceptor; [8]): 0.4 nM
Oc1ccccc1OCCNC[C@H](O)COc1cccc2[nH]c3ccccc3c12 [S-DMC]	–	3.27	–	–	–	–	9.92	8.52	5.02	2.73	–
